From patent publication US12077503B2, “Substituted cyclic amides and their use as herbicides” (FMC CORPORATION, priority 2015, dated 2024)

Tests used:
Format in all cases: in vivo
[1] = tested on: ragweed (common ragweed, Ambrosia elatior); experiment: Test A preemergence; details: Ambrosia artemisiifolia, pre-emergence, 240 h, read-out: Plant response rating, Ragweed; for pest or weed control at 125 g/ha: 125 g ai/ha, Preemergence, visual injury after approximately 10 d, 0 to 100 scale where 0 is no effect and 100 is complete control; for pest or weed control at 500 g/ha: 500 g ai/ha, preemergence, 0 to 100 scale, 0 = no effect, 100 = complete control
Summary of the method: (§1)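 Each rating is a visual injury score from 0 to 100 given about 10 d after treatment, judged against untreated controls kept alongside in the greenhouse. In loam soil–sand blend, seeds got a preemergence directed soil spray, while postemergence plants were 2 to 10 cm tall at spraying.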

[2] = tested on: giant foxtail (Setaria faberii); experiment: Test A preemergence; details: Setaria faberi, pre-emergence, 240 h, read-out: Plant response rating, Foxtail, Giant; for pest or weed control at 125 g/ha: 125 g ai/ha, Preemergence, visual injury after approximately 10 d, 0 to 100 scale where 0 is no effect and 100 is complete control; for pest or weed control at 500 g/ha: 500 g ai/ha, preemergence, 0 to 100 scale, 0 = no effect, 100 = complete control
Summary of the method: as §1

[3] = tested on: ryegrass, Italian (Italian ryegrass, Lolium multiflorum); experiment: Test A preemergence; details: Lolium multiflorum, pre-emergence, 240 h, read-out: Plant response rating, Ryegrass, Italian; for pest or weed control at 125 g/ha: 125 g ai/ha, Preemergence, visual injury after approximately 10 d, 0 to 100 scale where 0 is no effect and 100 is complete control; for pest or weed control at 500 g/ha: 500 g ai/ha, preemergence, 0 to 100 scale, 0 = no effect, 100 = complete control
Summary of the method: as §1

Kochia (Kochia scoparia) = experiment: Test A preemergence; details: Bassia scoparia, pre-emergence, 240 h, read-out: Plant response rating, Kochia; for pest or weed control at 125 g/ha: 125 g ai/ha, Preemergence, visual injury after approximately 10 d, 0 to 100 scale where 0 is no effect and 100 is complete control; for pest or weed control at 500 g/ha: 500 g ai/ha, preemergence, 0 to 100 scale, 0 = no effect, 100 = complete control
Summary of the method: as §1

[4] = tested on: pigweed (Amaranthus retroflexus); experiment: Test A preemergence; details: Amaranthus retroflexus, pre-emergence, 240 h, read-out: Plant response rating, Pigweed; for pest or weed control at 125 g/ha: 125 g ai/ha, Preemergence, visual injury after approximately 10 d, 0 to 100 scale where 0 is no effect and 100 is complete control; for pest or weed control at 500 g/ha: 500 g ai/ha, preemergence, 0 to 100 scale, 0 = no effect, 100 = complete control
[5] = tested on: Galium (catchweed bedstraw, Galium aparine); experiment: Test C preemergence; details: for Plant response rating (scale of 0 to 100), Galium: 31 g ai/ha, 0 is no effect, 100 is complete control; for Plant response rating, Galium: scale 0 to 100, 0 no effect, 100 complete control
Summary of the method: (§2)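 Visual 0 (no effect) to 100 (complete control) ratings versus controls, taken 13–15 d after treatment in the greenhouse; dash means no result. Compounds in a surfactant-containing non-phytotoxic solvent blend were applied preemergence to seeds in loam-sand soil or postemergence to 1- to 4-leaf plants (2–18 cm) in peat-based medium.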

soybean (Glycine max) = experiment: Test C preemergence; details: for Plant response rating (scale of 0 to 100), Soybean: 31 g ai/ha, 0 is no effect, 100 is complete control; for Plant response rating, Soybean: scale 0 to 100, 0 no effect, 100 complete control
Summary of the method: as §2

[6] = tested on: velvetleaf (Abutilon theophrasti); experiment: Test C preemergence; details: for Plant response rating (scale of 0 to 100), Velvetleaf: 31 g ai/ha, 0 is no effect, 100 is complete control; for Plant response rating, Velvetleaf: scale 0 to 100, 0 no effect, 100 complete control
Summary of the method: as §2

[7] = tested on: wheat (winter wheat, Triticum aestivum); experiment: Test C preemergence; details: for Plant response rating (scale of 0 to 100), Wheat: 31 g ai/ha, 0 is no effect, 100 is complete control; for Plant response rating, Wheat: scale 0 to 100, 0 no effect, 100 complete control
Summary of the method: as §2

[8] = tested on: foxtail, giant (giant foxtail, Setaria faberii); experiment: Test C preemergence; details: for Plant response rating (scale of 0 to 100), Foxtail, Giant: 31 g ai/ha, 0 is no effect, 100 is complete control; for Plant response rating, Foxtail, Giant: scale 0 to 100, 0 no effect, 100 complete control
Summary of the method: as §2

[9] = tested on: ryegrass, Italian (Italian ryegrass, Lolium multiflorum); experiment: Test C preemergence; details: for Plant response rating (scale of 0 to 100), Ryegrass, Italian: 31 g ai/ha, 0 is no effect, 100 is complete control; for Plant response rating, Ryegrass, Italian: scale 0 to 100, 0 no effect, 100 complete control
Summary of the method: as §2

[10] = tested on: crabgrass, large (large crabgrass, Digitaria sanguinalis); experiment: Test C preemergence; details: for Plant response rating (scale of 0 to 100), Crabgrass, Large: 31 g ai/ha, 0 is no effect, 100 is complete control; for Plant response rating, Crabgrass, Large: scale 0 to 100, 0 no effect, 100 complete control
Summary of the method: as §2

[11] = tested on: blackgrass (Alopecurus myosuroides); experiment: Test C preemergence; details: for Plant response rating (scale of 0 to 100), Blackgrass: 31 g ai/ha, 0 is no effect, 100 is complete control; for Plant response rating, Blackgrass: scale 0 to 100, 0 no effect, 100 complete control
Summary of the method: as §2

[12] = tested on: morningglory (Ipomoea coccinea); experiment: Test C preemergence; details: for Plant response rating (scale of 0 to 100), Morningglory: 31 g ai/ha, 0 is no effect, 100 is complete control; for Plant response rating, Morningglory: scale 0 to 100, 0 no effect, 100 complete control
Summary of the method: as §2

Compound: CN1C[C@H](c2ccc(F)c(F)c2)[C@@H](C(=O)Nc2cccc(F)c2F)C1=O [Compound 639, (3S,4S)—N-(2,3-difluorophenyl)-4-(3,4-difluorophenyl)-1-methyl-2-oxo-3-pyrrolidinecarboxamide]
- pest or weed control at 125 g/ha [1]: 50%
- pest or weed control at 500 g/ha [1]: 70%
- pest or weed control at 125 g/ha [2]: 90%
- pest or weed control at 500 g/ha [2]: 100%
- pest or weed control at 125 g/ha [3]: 60%
- pest or weed control at 500 g/ha [3]: 90%
- pest or weed control at 125 g/ha (Kochia (Kochia scoparia)): 70%
- pest or weed control at 500 g/ha (Kochia (Kochia scoparia)): 80%
- pest or weed control at 125 g/ha [4]: 50%
- pest or weed control at 500 g/ha [4]: 80%
- Plant response rating (scale of 0 to 100), Galium [5]: 85
- Plant response rating, Galium ([5]; 62 g ai/ha): 80
- Plant response rating, Galium ([5]; 125 g ai/ha): 85
- Plant response rating, Galium ([5]; 250 g ai/ha): 95
- Plant response rating (scale of 0 to 100), Soybean (soybean (Glycine max)): 0
- Plant response rating, Soybean (soybean (Glycine max); 62 g ai/ha): 0
- Plant response rating, Soybean (soybean (Glycine max); 125 g ai/ha): 10
- Plant response rating, Soybean (soybean (Glycine max); 250 g ai/ha): 20
- Plant response rating (scale of 0 to 100), Velvetleaf [6]: 0
- Plant response rating, Velvetleaf ([6]; 62 g ai/ha): 30
- Plant response rating, Velvetleaf ([6]; 125 g ai/ha): 65
- Plant response rating, Velvetleaf ([6]; 250 g ai/ha): 55
- Plant response rating (scale of 0 to 100), Wheat [7]: 0
- Plant response rating, Wheat ([7]; 62 g ai/ha): 65
- Plant response rating, Wheat ([7]; 125 g ai/ha): 80
- Plant response rating, Wheat ([7]; 250 g ai/ha): 85
- Plant response rating (scale of 0 to 100), Foxtail, Giant [8]: 90
- Plant response rating, Foxtail, Giant ([8]; 62 g ai/ha): 90
- Plant response rating, Foxtail, Giant ([8]; 125 g ai/ha): 95
- Plant response rating, Foxtail, Giant ([8]; 250 g ai/ha): 100
- Plant response rating (scale of 0 to 100), Ryegrass, Italian [9]: 25
- Plant response rating, Ryegrass, Italian ([9]; 62 g ai/ha): 60
- Plant response rating, Ryegrass, Italian ([9]; 125 g ai/ha): 60
- Plant response rating, Ryegrass, Italian ([9]; 250 g ai/ha): 70
- Plant response rating (scale of 0 to 100), Crabgrass, Large [10]: 98
- Plant response rating, Crabgrass, Large ([10]; 62 g ai/ha): 98
- Plant response rating, Crabgrass, Large ([10]; 125 g ai/ha): 100
- Plant response rating, Crabgrass, Large ([10]; 250 g ai/ha): 100
- Plant response rating (scale of 0 to 100), Blackgrass [11]: 40
- Plant response rating, Blackgrass ([11]; 62 g ai/ha): 85
- Plant response rating, Blackgrass ([11]; 125 g ai/ha): 85
- Plant response rating, Blackgrass ([11]; 250 g ai/ha): 90
- Plant response rating (scale of 0 to 100), Morningglory [12]: 20
- Plant response rating, Morningglory ([12]; 62 g ai/ha): 10
- Plant response rating, Morningglory ([12]; 125 g ai/ha): 35
- Plant response rating, Morningglory ([12]; 250 g ai/ha): 40

Compound: CN1C[C@H](c2ccc(C(F)(F)F)cc2)[C@@H](C(=O)Nc2ccccc2F)C1=O [Compound 622, (3S,4S)—N-(2-fluorophenyl)-1-methyl-2-oxo-4-[4-(trifluoromethyl)phenyl]-3-pyrrolidinecarboxamide]
- pest or weed control at 125 g/ha [1]: 60%
- pest or weed control at 500 g/ha [1]: 60%
- pest or weed control at 125 g/ha [2]: 90%
- pest or weed control at 500 g/ha [2]: 90%
- pest or weed control at 125 g/ha [3]: 40%
- pest or weed control at 500 g/ha [3]: 40%
- pest or weed control at 125 g/ha (Kochia (Kochia scoparia)): 80%
- pest or weed control at 500 g/ha (Kochia (Kochia scoparia)): 80%
- pest or weed control at 125 g/ha [4]: 80%
- pest or weed control at 500 g/ha [4]: 80%
- Plant response rating (scale of 0 to 100), Galium [5]: 80
- Plant response rating, Galium ([5]; 62 g ai/ha): 90
- Plant response rating, Galium ([5]; 125 g ai/ha): 90
- Plant response rating, Galium ([5]; 250 g ai/ha): 90
- Plant response rating (scale of 0 to 100), Soybean (soybean (Glycine max)): 0
- Plant response rating, Soybean (soybean (Glycine max); 62 g ai/ha): 20
- Plant response rating, Soybean (soybean (Glycine max); 125 g ai/ha): 85
- Plant response rating, Soybean (soybean (Glycine max); 250 g ai/ha): 45
- Plant response rating (scale of 0 to 100), Velvetleaf [6]: 0
- Plant response rating, Velvetleaf ([6]; 62 g ai/ha): 25
- Plant response rating, Velvetleaf ([6]; 125 g ai/ha): 70
- Plant response rating, Velvetleaf ([6]; 250 g ai/ha): 70
- Plant response rating (scale of 0 to 100), Wheat [7]: 30
- Plant response rating, Wheat ([7]; 62 g ai/ha): 40
- Plant response rating, Wheat ([7]; 125 g ai/ha): 70
- Plant response rating, Wheat ([7]; 250 g ai/ha): 80
- Plant response rating (scale of 0 to 100), Foxtail, Giant [8]: 90
- Plant response rating, Foxtail, Giant ([8]; 62 g ai/ha): 90
- Plant response rating, Foxtail, Giant ([8]; 125 g ai/ha): 95
- Plant response rating, Foxtail, Giant ([8]; 250 g ai/ha): 95
- Plant response rating (scale of 0 to 100), Ryegrass, Italian [9]: 25
- Plant response rating, Ryegrass, Italian ([9]; 62 g ai/ha): 50
- Plant response rating, Ryegrass, Italian ([9]; 125 g ai/ha): 35
- Plant response rating, Ryegrass, Italian ([9]; 250 g ai/ha): 70
- Plant response rating (scale of 0 to 100), Crabgrass, Large [10]: 100
- Plant response rating, Crabgrass, Large ([10]; 62 g ai/ha): 95
- Plant response rating, Crabgrass, Large ([10]; 125 g ai/ha): 100
- Plant response rating, Crabgrass, Large ([10]; 250 g ai/ha): 100
- Plant response rating (scale of 0 to 100), Blackgrass [11]: 0
- Plant response rating, Blackgrass ([11]; 62 g ai/ha): 0
- Plant response rating, Blackgrass ([11]; 125 g ai/ha): 80
- Plant response rating, Blackgrass ([11]; 250 g ai/ha): 85
- Plant response rating (scale of 0 to 100), Morningglory [12]: 0
- Plant response rating, Morningglory ([12]; 62 g ai/ha): 0
- Plant response rating, Morningglory ([12]; 125 g ai/ha): 25
- Plant response rating, Morningglory ([12]; 250 g ai/ha): 20
